Source: patent US10441588B2, “Methods and compositions for treating bacterial infection” (Curators of the University of Missouri, priority 2012, dated 2019)
Structures can show the parent of a compound that is named as a salt. Where two headings read alike, the source gives them in different places.

Key:
S. aureus biofilm = S. aureus biofilm inhibition, optical density, test/control; format: cell-based, Staphylococcus aureus; details: Staphylococcus aureus, growth of biofilm test/control by optical density
S. aureus = S. aureus growth inhibition, optical density, test/control; format: cell-based, Staphylococcus aureus; details: Staphylococcus aureus, growth of bacteria test/control by optical density
S. epidermis biofilm = S. epidermis biofilm inhibition, optical density, test/control; details: growth of biofilm test/control by optical density; for activity at 5 µM / activity at 50 µM: Staphylococcus epidermidis; for activity at 5 µM: read-out: S. epidermis Biofilm inhibition 5 μM vs. (−) Control, 5 μM; for activity at 50 µM: read-out: S. epidermis Biofilm inhibition 50 μM vs. (−) Control, 50 μM
[1] = 5 μM, read-out: S. aureus Biofilm Inhibition 5 μM vs. (−) Control
[2] = 50 μM, read-out: S. aureus Biofilm Inhibition 50 μM vs. (−) Control
[3] = read-out: S. aureus Biofilm Inhibition 5 μM vs. (−) Control, 5 μM

Structure (SMILES)	activity at 100 µM (S. aureus biofilm)	activity at 100 µM (S. aureus)	activity at 5 µM (S. epidermis biofilm)	further results
COCCSc1nc2c(c(=O)n1CCOc1ccc(OC)cc1)C(C)(C)Cc1ccccc1-2 [CCG-204060]	79%	91.2%		
C#CCSc1nc2c(c(=O)n1CC=C)C(C)(C)Cc1cc(C(=O)c3ccccc3)ccc1-2 [CCG-204080, 3-allyl-8-benzoyl-5,5-dimethyl-2-(prop-2-yn-1-ylthio)-5,6-dihydrobenzo[h]quinazolin-4(3H)-one]	73.4%	110%		
COCCOc1nc(SCCOC)nc(-c2ccccc2)c1C [CCG-205361, 4-(2-Methoxyethoxy)-2-((2-methoxyethyl)thio)-5-methyl-6-phenylpyrimidine]	67.7%	89%		
C=CCOc1nc(SCCOC)nc(-c2ccccc2)c1C [CCG-205382, 4-(Allyloxy)-2-((2-methoxyethyl)thio)-5-methyl-6-phenylpyrimidine]	55.2%	93.4%		
COCCSc1nc2c(c(=O)n1Cc1ccc(-c3noc(C)n3)cc1)C(C)(C)Cc1ccccc1-2 [CCG-205387, 2-((2-Methoxyethyl)thio)-5,5-dimethyl-3-(4-(5-methyl-1,2,4-oxadiazol-3-yl)benzyl)-5,6-dihydrobenzo[h]quinazolin-4(3H)-one]	72.3%	115%		
COCCSc1nc2c(c(=O)n1CCCO)C(C)(C)Cc1ccccc1-2 [CCG-205390, 3-(3-Hydroxypropyl)-2-((2-methoxyethyl)thio)-5,5-dimethyl-5,6-dihydrobenzo[h]quinazolin-4(3H)-one]	52.5%	89.1%		S. epidermis Biofilm inhibition 10 μM vs. (−) Control (S. epidermis biofilm; 10 μM): 0.921
C=CCn1c(SCC)nc2c(c1=O)C(C)(C)Cc1cc(OCC(C)C)ccc1-2 [CCG-205426, 3-allyl-2-(ethylthio)-8-isobutoxy-5,5-dimethyl-5,6-dihydrobenzo[h]quinazolin-4(3H)-one]	77.8%	114%		
C=CCn1c(SCCOC)nc2c(c1=O)C(C)(C)Cc1cc(C(=O)OC)ccc1-2 [CCG-205435]		126%		activity at 10 µM (S. aureus biofilm): 29.3%
COCCSc1nc2c(c(=O)n1CC1CC1)C(C)(C)Cc1ccccc1-2 [CCG-205444, 3-(Cyclopropylmethyl)-2-((2-methoxyethyl)thio)-5,5-dimethyl-5,6-dihydrobenzo[h]quinazolin-4(3H)-one]	66.2%	104%		
COCCSc1nc(OCC2CC2)c2c(n1)-c1ccccc1CC2(C)C [CCG-205445, 4-(Cyclopropylmethoxy)-2-((2-methoxyethyl)thio)-5,5-dimethyl-5,6-dihydrobenzo[h]quin-azoline]	71.1%	107%		
C=CCn1c(SCCOC)nc2c(c1=O)C1(CCOCC1)Cc1ccccc1-2 [CCG-205453, 3-Allyl-2-((2-methoxyethyl)thio)-2′,3′,5′,6′-tetrahydro-3H-spiro[benzo[h]quinazoline-5,4′-pyran]-4(6H)-one]	79.6%	102%		
C=CCn1c(SCC)nc2c(c1=O)C(C)(C)Cc1cc(OC(C)C)ccc1-2 [CCG-205480]		115%		activity at 10 µM (S. aureus biofilm): 52.3%
C=CCn1c(SCC)nc2c(c1=O)C(C)(C)Cc1cc(OCCN3C(=O)c4ccccc4C3=O)ccc1-2 [CCG-206176, 2-(2-((3-allyl-2-(ethylthio)-5,5-dimethyl-4-oxo-3,4,5,6-tetrahydrobenzo[h]quinazolin-8-yl)oxy)ethyl)isoindoline-1,3-dione]	79.5%	100%		
C=CCn1c(SCC)nc2c(c1=O)C(C)(C)Cc1cc(OCC#N)ccc1-2 [CCG-206178]		104%		activity at 10 µM (S. aureus biofilm): 56.5%
C=CCn1c(SCCOC)nc2c(c1=O)C1(CCN(C(C)=O)CC1)Cc1ccccc1-2 [CCG-206230, 1′-Acetyl-3-allyl-2-((2-methoxyethyl)thio)-3H-spiro[benzo[h]quinazoline-5,4′-piperidin]-4(6H)-one]		97%		activity at 10 µM (S. aureus biofilm): 85.5%
C=CCn1c(SCCOC)nc2c(c1=O)C1(CCN(C(=O)c3ccccc3)CC1)Cc1ccccc1-2 [CCG-206231, 3-Allyl-1′-benzoyl-2-((2-methoxyethyl)thio)-3H-spiro[benzo[h]quinazoline-5,4′-piperidin]-4(6H)-one]	53%	111%		activity at 10 µM (S. aureus biofilm): 52.5%

Structure (SMILES)	activity at 100 µM (S. aureus biofilm)	activity at 100 µM (S. aureus)	activity at 5 µM (S. epidermis biofilm)	further results
C=CCn1c(SCCOC)nc2c(c1=O)C1(CCN(C=O)CC1)Cc1ccccc1-2 [CCG-206234, 3-Allyl-2-((2-methoxyethyl)thio)-4-oxo-4,6-dihydro-3H-spiro[benzo[h]quinazoline-5,4′-piperidine]-1′-carbaldehyde]	65%	99%		activity at 10 µM (S. aureus biofilm): 101%
C=CCn1c(SCCOC)nc2c(c1=O)C1(CCN(C(=O)c3ccc(Cl)cc3)CC1)Cc1ccccc1-2 [CCG-206235, 3-Allyl-1′-(4-chlorobenzoyl)-2-((2-methoxyethyl)thio)-3H-spiro[benzo[h]quinazoline-5,4′-piperidin]-4(6H)-one]	77.6%	106%		
C=CCn1c(SCC(F)(F)F)nc2c(c1=O)C(C)(C)Cc1ccc(OC)cc1-2 [CCG-206352]	47%	101%		activity at 10 µM (S. aureus biofilm): 60.4%
C=CCn1c([S+]([O-])CC)nc2c(c1=O)C(C)(C)Cc1ccc(OC)cc1-2 (centres unmarked) [CCG-206355]	74.7%	96%		
CCSc1nc(OCC(F)(F)F)c2c(n1)-c1cc(OC)ccc1CC2(C)C [CCG-206356]	59.1%	110%		
C=CCn1c(SCCOC)nc2c(c1=O)C1(CCN(C(=O)OC(C)(C)C)CC1)Cc1cc(OC)ccc1-2 [CCG-206660, tert-butyl 3-allyl-8-methoxy-2-((2-methoxyethyl)thio)-4-oxo-4,6-dihydro-3H-spiro[benzo[h]quinazoline-5,4′-piperidine]-1′-carboxylate]			71.5%	activity at 50 µM (S. epidermis biofilm): 64.3%; activity at 5 µM (S. aureus biofilm; [1]): 46%; activity at 50 µM (S. aureus biofilm; [2]): 60.1%
C=CCn1c(SCCOC)nc2c(c1=O)C1(CCNCC1)Cc1cc(OC)ccc1-2 [CCG-206661, 3-allyl-8-methoxy-2-((2-methoxyethyl)thio)-3H-spiro[benzo[h]quinazoline-5,4′-piperidin]-4(6H)-one hydrochloride]			98.7%	activity at 5 µM (S. aureus biofilm; [3]): 86.9%
C=CCn1c(SCC)nc2c(c1=O)C1(CCN(C(=O)OC(C)(C)C)CC1)Cc1cc(OC)ccc1-2 [CCG-206663, tert-butyl 3-allyl-2-(ethylthio)-8-methoxy-4-oxo-4,6-dihydro-3H-spiro[benzo[h]quinazoline-5,4′-piperidine]-1′-carboxylate]			73.4%	activity at 50 µM (S. epidermis biofilm): 76.1%; activity at 5 µM (S. aureus biofilm; [1]): 49.9%
C=CCn1c(SCC)nc2c(c1=O)C1(CCNCC1)Cc1cc(OC)ccc1-2 [CCG-206664, 3-allyl-2-(ethylthio)-8-methoxy-3H-spiro[benzo[h]quinazoline-5,4′-piperidin]-4(6H)-one hydrochloride]			87.7%	activity at 5 µM (S. aureus biofilm; [3]): 89%; activity at 50 µM (S. aureus biofilm; read-out: S. aureus Biofilm Inhibition 50 μM vs. (−) Control, 50 μM): 2.8%
C=CCn1c(SCCOC)nc2c(c1=O)C1(CCN(C(=O)OC(C)(C)C)C1)Cc1ccccc1-2 (centres unmarked) [CCG-208860, tert-butyl 3-allyl-2-((2-methoxyethyl)thio)-4-oxo-4,6-dihydro-3H-spiro[benzo[h]quinazoline-5,3′-pyrrolidine]-1′-carboxylate]			85%	activity at 50 µM (S. epidermis biofilm): 79.8%; activity at 5 µM (S. aureus biofilm; [1]): 70.4%; activity at 50 µM (S. aureus biofilm; [2]): 46.4%
C=CCn1c(SCCOC)nc2c(c1=O)C1(CCN(Cc3ccccc3)CC1)Cc1cc(OC)ccc1-2 [CCG-208982, 3-allyl-1′-benzyl-8-methoxy-2-((2-methoxyethyl)thio)-3H-spiro[benzo[h]quinazoline-5,4′-piperidin]-4(6H)-one]			98.7%	activity at 50 µM (S. epidermis biofilm): 66%; activity at 5 µM (S. aureus biofilm; [1]): 76.5%; activity at 50 µM (S. aureus biofilm; [2]): 31.9%
C=CCn1c(SCCOC)nc2c(c1=O)C1(CCN(C(=O)NC)CC1)Cc1cc(OC)ccc1-2 [CCG-211970, 3-allyl-8-methoxy-2-((2-methoxyethyl)thio)-N-methyl-4-oxo-4,6-dihydro-3H-spiro[benzo[h]quinazoline-5,4′-piperidine]-1′-carboxamide]			79%	activity at 50 µM (S. epidermis biofilm): 67%; activity at 5 µM (S. aureus biofilm; [1]): 69%; activity at 50 µM (S. aureus biofilm; [2]): 58%
C=CCn1c(SCCOC)nc2c(c1=O)C1(CCN(C(=O)Nc3ccccc3)CC1)Cc1cc(OC)ccc1-2 [CCG-211971, 3-allyl-8-methoxy-2-((2-methoxyethyl)thio)-4-oxo-N-phenyl-4,6-dihydro-3H-spiro[benzo[h]quinazoline-5,4′-piperidine]-1′-carboxamide]			125%	activity at 50 µM (S. epidermis biofilm): 69%
COc1ccc2c(c1)CC1(CCNCC1)c1c(OC)nc(SCC#N)nc1-2 [CCG-212014, 2((4,8-dimethoxy-6H-spiro[benzo[h]quinazoline-5,4′-piperidin]-2-yl)thio)acetonitrile]			105%	activity at 50 µM (S. epidermis biofilm): 63%; activity at 5 µM (S. aureus biofilm; [1]): 77%; activity at 50 µM (S. aureus biofilm; [2]): 52%
COc1ccc2c(c1)CC1(CCNCC1)c1c(OCC#N)nc(SCC#N)nc1-2 [CCG-212015, 2-((4-(cyanomethoxy)-8-methoxy-6H-spiro[benzo[h]quinazoline-5,4′-piperidin]-2-yl)thio)acetonitrile]			93%	activity at 50 µM (S. epidermis biofilm): 48%; activity at 5 µM (S. aureus biofilm; [1]): 94%; activity at 50 µM (S. aureus biofilm; [2]): 33%
